One data set concerns myocardial contraction. The following applies: cited from earlier work; for myocardial contraction activity EC50: sources [7], [8]; for myocardial contraction activity, equivalent to % of forskolin: source [2].
Data set [1] has as its system guinea pig myocardial contraction. The following applies: source [5]; cited from earlier work.
The conditions of data set [2]: cited from earlier work; for antihypertensive effect, equivalent to % of forskolin: source [2].
The conditions of data set [3]: of 6-[3-(dimethylamino)propionyl]forskolin; sources [3], [4]; cited from earlier work.
For data set [4], the system named is systolic blood pressure (SBP), diastolic blood pressure (DBP), heart rate (HR). The note with it: source [3]; cited from earlier work.
Another data set deals with cAMP. The following applies: source [1]; cited from earlier work.
In data set [5] the target is adenylate cyclase in rat cerebral cortex. The note with it: source [8]; read-out: activation of adenylate cyclase in rat cerebral cortex EC50; cited from earlier work.
A further data set concerns psoriasis. The following applies: 4 patients with psoriasis; PCT/US84/00291; cited from earlier work.
The conditions of data set [6]: cited from earlier work.
A further data set deals with TNF-α. As to the kind of experiment: LPS-induced TNF-α secretion in THP-1 cells, ELISA of culture supernatant. Type of data set: cell-based, human. The following applies: for TNF-α treatment value, B: relative to control. How it is done:
1) Recoveried and expanded THP-1 cells in a T75 culture flask. The growth medium was 10 milliliters of 10% fetal bovine serun/RPMI1640 (already containing 2 mM glutamine)/1% double antibiotics in each flask. Observed the cells under an invert microscope, and, when the cells were in the logarithmic growth phase, started the following drug treatment experiments; 2) Cultured 2*10e5/mL THP-1 cells in a 96-well culture plate with 100 microliters of growth medium (10% fetal bovine serum/RPMI640/1% double antibiotics) per well, and added 100 ng/ml PMA to incubate for 24 hour; 3) Eluted the non-adherent cells once with 300 microliters of fresh growth medium of 10% fetal bovine serum/RPMI1640/1% double antibiotics; 4) Added 200 microliters of growth medium of 10% fetal bovine serum/RPMI1640/1% double antibiotics, with/without test compound, to pre-incubate the cells at 37° C. for 2 hours; 5) Then added 100 ng/mL lipopolysaccharide (LPS) and incubated at 37° C. for 4 hours: 6) Collected 50 microliters of cell culture supernatant for the detection of the levels of related cytokines by enzyme-linked immunoassay, or stored it in a refrigerator at minus 80 degrees Celsius for future detection; 1) Prepared 1× elution buffer for enzyme-linked immunoassay. Prepared it with ultrapure water: 10× elution buffer mother solution=9:1 in volume ratio for use; 2) Prepared the antibody cocktail for enzyme-linked immunoassay. Prepared it with the antibody diluent (provided by Ab221825):antibody 1:antibody 2=18:1:1 in volume ratio for use. Antibody 1 was a TNF-α capture antibody and Antibody 2 was a TNF-α detector antibody. They were all supplied by kit Ab221825; 3) Prepared a series of concentration gradient samples of TNF-α standard with ultrapure water for the plotting of reaction standard curve and determining the linear range of detection signal; 4) Added 50 microliters of cell culture supernatant/standard and 50 microliters of the above antibody cocktail to a 96-well plate used for enzymatic reaction, sealed it with a film, placed it on a horizontal shaker, and incubated at 400 rpm for 1 hour at room temperature to allow the antibody-antigen complex was fully bound and coupled at the bottom of the well plate; 5) Discarded the supernatant, eluted with 350 microliters of 1× elution buffer/well for 3 times. In the last elution, put the well plate upside down on an absorbent paper and sucked and washed it thoroughly; 6) Added 100 microliters of TMB substrate solution (supplied by Ab221825) to each well, placed them on a horizontal shaker and incubated in the dark at room temperature for 5 minutes at a speed of 400 rpm; 7) Added 100 microliters of reaction stop solution (provided by Ab221825), placed on a horizontal shaker and mix at 400 rpm for 1 minute; 8) Detected the absorbance at 450 nm with a microplate reader.
(In general: An ELISA detects its analyte on a solid surface through an enzyme-linked reagent.)

The next data set relates to IL-17A. The data set can be described thus: IL-17A secretion of mouse spleen Naïve CD4+ T cells induced to differentiate to Th17 cells by cytokines, ELISA. Type of data set: cell-based. How it is done: 1) Pre-coated the 96-well plate with 2 μg/mL anti-mouse CD3e and incubated overnight at 4 degrees Celsius: 2) Separated fresh spleens from adult C57BL/6 female mice (8-12 weeks old), ground and filtered through a […] nylon cell strainer to obtain a single cell suspension in pre-cooled DPBS; 3) Washed the spleen cells again with DPBS, and resuspended in RoboSep™ buffer at a density of 1×10^8/mL; 4) Separated primary CD4+ T cells with mouse primary CD4+ T cell isolation kit as required by the kit; 5) Resuspended the isolated CD4+ T cells in complete medium (RPMI 1640 medium+10% inactivated FBS+1% double antibiotics) at a density of 1×10^6/mL; 6) Washed the 96-well plate pre-coated with anti-mouse CD3e twice with DPBS, added 50 μL of cytokine cocktail, the composition and final concentration of which are shown in Table 6 below, and then added 50 μL of compound solution (the final concentration of DMSO was 0.1%). Added 100 μL of cell suspension to each well to allow the final cell number per well to be 1×10^5/100 μL; [table] 7) Cultured the cells for 7 days under the above conditions. The culture conditions were 37 degrees Celsius, 5% CO2 concentration; 8) After 7 days, added 1× stimulation cocktail (eBioscience 500X) to the culture medium for 4 hours, and then collected cell culture supernatant for detection with IL-17A enzyme-linked immunoassay kit; 9) Completed the detection of supernatant IL-17A concentration with mouse IL-17 DuoSet ELISA kit; 10) Read the OD450 nm absorbance value with a microplate reader, and generated the standard curve by using the 4-parameter logistic fitting (4-PL) method. 1) Diluted the capture antibody (provided in the kit) to a working concentration in PBS without carrier protein, that is, a 96-well plate can be coated with 100 microliters per well. Sealed and incubated the plate overnight at room temperature; 2) Aspirated the coating buffer of the well plate, and eluted with 400 microliters of eluent (provided in the kit) for three times, aspirating as much liquid as possible each time; 3) Added 300 microliters of diluent (provided in the kit) to each well, and equilibrated for 1 hour at room temperature; 4) Eluted the well plate as in the above step 2) to be ready for the addition of sample; ) Added 100 microliters of sample or standard to each well containing the added diluent, and sealed and incubated the well plate for 2 hours at room temperature; 6) Eluted the well plate as in the above step 2); 7) Added 100 microliters of detector antibody (provided in the kit) to each well, and sealed and incubated the well plate for 2 hours at room temperature. 8) Eluted the well plate as in the above step 2); 9) Added 100 microliters of Streptavidin-HRP working solution (provided in the kit) to each well, and sealed and incubated the well plate in dark for 20 minutes at room temperature. 10) Eluted the well plate as in the above step 2); 11) Added 100 microliters of reaction substrate solution (provided in the kit) to each well, and incubated at room temperature for 20 minutes, protected from light: 12) Added 50 microliters of stop solution (provided in the kit) to each well, and tapped the well plate to ensure that the liquid is evenly mixed; 13) Detected the optical density value of each well at […]. The values could be corrected by deducting the values at 540 nm or 570 nm.

Regarding `C=C[C@@]1(C)CC(=O)[C@]2(O)C3(C)C(C(O)C(OC(=O)COC=O)[C@@]2(C)O1)C(C)(C)CC[C@@H]3O` (stereo partly shown) [7-(2-formyloxy)forskolin], in the data set on myocardial contraction, the “myocardial contraction activity EC50” value is on record as “myocardial contraction activity EC50 = 0.002 μg/mL”.

As to `C=CC1(C)CC(=O)C2(O)C(C)(O1)C(O)C(OC(=O)CN1CCCCC1)C1C(C)(C)CCC(O)C12C` (stereo not shown) [6-[(piperidino)acetyl]-7-desacetyl forskolin], the “guinea pig myocardial contraction activity EC50” value in data set [1] is “guinea pig myocardial contraction activity EC50: 1.8 μg/mL”.

For `C=C[C@@]1(C)CC(=O)C2(O)[C@@]3(C)C(O)CCC(C)(C)C3[C@H](OC(=O)CCN(C)C)C(OC(C)=O)[C@@]2(C)O1` (stereo partly shown) [6-[3-(dimethylamino)propionyl]forskolin], in [2], the “antihypertensive effect, equivalent to % of forskolin” value was 80 % of forskolin. Moreover, the “myocardial contraction activity, equivalent to % of forskolin” value in the data set with myocardial contraction was 120 % of forskolin.

With `C=C[C@@]1(C)CC(=O)C2(O)[C@@]3(C)[C@@H](O)CCC(C)(C)[C@@H]3[C@H](OC(=O)CCN)[C@H](OC(C)=O)[C@@]2(C)C1` (stereo partly shown) [6-[3-aminopropionyl]forskolin], the metabolite status result in [3] was “in vivo active metabolite of 6-[3- (dimethylamino)- propionyl]forskolin”.

Consider `C=C[C@@]1(C)CC(=O)C2(O)[C@@]3(C)C(O)CCC(C)(C)C3[C@H](OC(=O)CCCN(C)C)C(OC(C)=O)[C@@]2(C)O1` (stereo partly shown) [6-[4-(dimethylamino)butyryl]forskolin], for which the “antihypertensive effect, equivalent to % of forskolin” value in [2] was 90 % of forskolin. Moreover, the “myocardial contraction activity, equivalent to % of forskolin” value in the data set on myocardial contraction is 100 % of forskolin.

For the molecule `C=C[C@@]1(C)CC(=O)C2(O)[C@@]3(C)[C@@H](O)CCC(C)(C)[C@@H]3[C@H](OC(=O)CCNC)[C@H](OC(C)=O)[C@@]2(C)C1` (stereo partly shown) [6-[3-(methylamino)propionyl]forskolin], the “beagle dog's systolic blood pressure (SBP), diastolic blood pressure (DBP), heart rate (HR) and other effects” value in data set [4] was “equivalent to 6-[3- (dimethylamino)- propionyl]forskolin”. For the same molecule, in [3], the metabolite status result is listed as “in vivo active metabolite”.

Consider `C=C[C@@]1(C)CC(=O)C2(O)[C@@]3(C)C(O)CCC(C)(C)C3[C@H](OC(=O)CCCN)C(OC(C)=O)[C@@]2(C)O1` (stereo partly shown) [6-(4-aminobutyryl)forskolin], for which the antihypertensive effect in data set [2] (source [1]) is 0.7. Also, the cAMP activation with cAMP is 214.9%. In the data set with myocardial contraction (source [1]), the myocardial contraction activity is listed as 0.9 dp/dt.

In general, EC50 refers to the concentration that produces a half-maximal response. Consider `C=C[C@@]1(C)CC(=O)[C@]2(O)[C@@]3(C)[C@@H](O)CCC(C)(C)[C@@H]3[C@H](O)[C@H](OC(C)=O)[C@@]2(C)O1` [forskolin], for which, in data set [5], the half-maximal effective concentration (EC50) was 8 µM. In the data set on psoriasis, the “effect on pathological symptoms of psoriasis” value is “relieved the pathological symptoms”. Further, in data set [6], the water solubility entry was “poor”. Besides, in the data set on myocardial contraction, the “myocardial contraction activity EC50” value is 0.02 µg/mL. In the data set on TNF-α (FIG. 2, compared with 6-[3-(dimethylamino)propionyl]forskolin hydrochloride), the “drug activity in reducing TNF-α” value is “slightly lower than the aforementioned compound”.

As for `CCCCC[C@H](O)/C=C/[C@H]1[C@H](O)CC(=O)[C@@H]1C/C=C\CCCC(=O)O` [PGE2, prostaglandin E2, reference compound], the “IL-17A, % of the basic level” value with IL-17A (3 μM PGE2 alone, FIG. 10) is given as 17%. The “IL-17A treatment value, B” value in the data set on IL-17A (Table 7, relative to control, 3 μM PGE2) is recorded as 17%. Also, the “effect on secretion and expression of TNF-α” value in the data set on TNF-α (10 μM PGE2 alone, FIG. 4) was “inhibited the secretion and expression of TNF-α to a certain extent”. In addition, in the data set with TNF-α (Table 3, 10 μM PGE2), the “TNF-α treatment value, B” value is reported as 46%.

Regarding `C[C@]12CCC(=O)C=C1CC[C@@H]1[C@@H]2[C@@H](O)C[C@@]2(C)[C@H]1CC[C@]2(O)C(=O)CO` [hydrocortisone, reference compound], the “reduction of the IL-17A level, % of the basic level” value in the data set on IL-17A (3 μM hydrocortisone alone, FIG. 12) turned out to be 38%. Also, in the data set on IL-17A (Table 8, relative to control, 3 μM hydrocortisone), the “IL17-A treatment value, B” value was determined as 62%. In addition, the “effect on TNF-α” value in the data set on TNF-α (30 μM hydrocortisone alone, pre-incubated 2 hours before LPS, FIG. 6) is “further stimulated the increase of inflammatory factor TNF-α”. The “TNF-α treatment value, B” value in the data set with TNF-α (Table 4, 30 μM hydrocortisone) is 200%.

Values taken from patent publication US20220079915A1, “IMMUNOSUPPRESSIVE PHARMACEUTICAL COMPOSITION AND APPLICATION THEREOF” (Shanghai Archeus Biotech Co., Ltd., priority 2018, published 2022).
